{
  "source": "patent US20100015147A1",
  "about": "(priority 2001, published 2010)",
  "key": {"mammalian neuraminidase": {"system": "mammalian neuraminidase", "details": "cultures of human macrophagic cells; cited from earlier work"}, "Swiss-Webster (SW) mice [1]": {"system": "Swiss-Webster (SW) mice", "assay": "Hot-water-immersion tail-flick antinociception assays with neuraminidase inhibitors (temperature not given)", "assay_type": "in vivo"}, "Swiss-Webster (SW) mice [2]": {"system": "Swiss-Webster (SW) mice", "assay_type": "in vivo"}, "Swiss-Webster (SW) mice [3]": {"system": "Swiss-Webster (SW) mice", "assay_type": "in vivo", "details": "for effect on low-dose κ-opioid-induced hyperalgesia, compared with CTX-B cotreatment: 10 ng/kg U-50,488H plus ultralow (pg/kg) dose of antagonist"}, "Swiss-Webster (SW) mice [4]": {"system": "Swiss-Webster (SW) mice", "assay_type": "in vivo", "remark": "listed apart in the source"}, "[5]": {"system": "male dental-pain patients", "details": "cited from earlier work"}, "Swiss-Webster (SW) mice [6]": {"system": "Swiss-Webster (SW) mice", "details": "low doses in naïve mice; cited from earlier work"}, "mice": {"system": "mice", "details": "cited from earlier work"}},
  "note": "Entries after “also recorded” stand apart in the source; their conditions may differ. Where two headings read alike, the source gives them in different places.",
  "data": [
    {"molecule": "O=S(=O)([O-])[O-].[Mg+2]", "note": "[MgSO4]", "values": [
      {"measurement": "effect on mammalian neuraminidase activity", "setting": "mammalian neuraminidase", "result": "potent inhibitory effects on mammalian neuraminidase activity"}
    ]},
    {"molecule": "O=S(=O)([O-])[O-].[Na+].[Na+]", "note": "[Na2SO4]", "values": [
      {"measurement": "results of antinociception assays compared with oseltamivir", "setting": "Swiss-Webster (SW) mice [1]; 3 μg/kg morphine plus 10 mg/kg Na2SO4", "result": "surprisingly similar"},
      {"measurement": "development of tolerance", "setting": "Swiss-Webster (SW) mice [1]; 10 mg/kg Na2SO4 plus 3 mg/kg morphine, daily injections for 5 days", "result": "prevented development of tolerance during daily injections for 5 days"},
      {"measurement": "effect on morphine analgesia", "setting": "Swiss-Webster (SW) mice [1]; chronic 10 mg/kg Na2SO4 plus 3 mg/kg morphine", "result": "enhanced analgesia"},
      {"measurement": "effect on mammalian neuraminidase activity", "setting": "mammalian neuraminidase", "result": "potent inhibitory effects on mammalian neuraminidase activity"},
      {"measurement": "NLX-precipitated withdrawal hyperalgesia", "setting": "Swiss-Webster (SW) mice [2]; mouse, in vivo", "result": "prevented NLX-precipitated withdrawal hyperalgesia"}
    ]},
    {"molecule": "CN1CC[C@]23c4c5ccc(O)c4O[C@H]2[C@@H](O)C=C[C@H]3[C@H]1C5", "note": "[morphine]", "values": [
      {"measurement": "response after chronic morphine only", "setting": "Swiss-Webster (SW) mice [1]; morphine-only group, 5 days (FIG. 9)", "result": "marked hyperalgesia"},
      {"measurement": "effect on tail-flick latency, opioid alone", "setting": "Swiss-Webster (SW) mice [3]; 0.1 μg/kg morphine s.c. alone, control groups", "result": "marked hyperalgesia; also recorded: characteristic hyperalgesia"},
      {"measurement": "duration of decreases in tail-flick latencies (hyperalgesia) after drug injection", "setting": "Swiss-Webster (SW) mice [3]; 1 μg/kg morphine s.c. alone, 52° C., male mice", "result": "4 to 5", "unit": "h"},
      {"measurement": "time after opioid injection to hyperalgesia", "setting": "Swiss-Webster (SW) mice [3]; 1 mg/kg morphine s.c. alone, control group of female mice", "result": "≤ 2", "unit": "h"},
      {"measurement": "decreases in tail-flick latencies", "setting": "Swiss-Webster (SW) mice [3]; ca. 1 μg/kg morphine s.c. alone, 52° C.", "result": "1 to 2", "unit": "s"},
      {"measurement": "time course of antinociceptive effect, morphine alone", "setting": "Swiss-Webster (SW) mice [4]; 3 mg/kg morphine alone, 55° C.", "result": "sharply decreased after the first-hour peak"},
      {"measurement": "analgesic effects after chronic morphine alone (tolerance)", "setting": "Swiss-Webster (SW) mice [4]; daily 3 mg/kg morphine alone, 5 days", "result": "sharply decreased by 5 days"}
    ]},
    {"molecule": "Oc1ccc2c3c1O[C@H]1[C@@H](O)CC[C@@]4(O)[C@@H](C2)N(CC2CCC2)CC[C@]314", "note": "[nalbuphine]", "values": [
      {"measurement": "effect on pain within 1 h after injection", "setting": "[5]; nalbuphine 5 mg i.v.", "result": "hyperalgesia"}
    ]},
    {"molecule": "C=CCN1CC[C@]23c4c5ccc(O)c4O[C@H]2C(=O)CC[C@@]3(O)[C@H]1C5", "note": "[naloxone]", "values": [
      {"measurement": "effect on nalbuphine-induced hyperalgesia", "setting": "[5]; cotreatment with 0.5 mg naloxone", "result": "blocked"},
      {"measurement": "duration of NLX-evoked hyperalgesic response", "setting": "Swiss-Webster (SW) mice [2]; chronic morphine (e.g., 10 mg/kg for 5-6 days), withdrawal, 10 μg/kg NLX", "result": "more than 5 h"},
      {"measurement": "effect on baseline tail-flick latency", "setting": "Swiss-Webster (SW) mice [6]", "result": "did not alter the baseline tail-flick latency"}
    ]},
    {"molecule": "O=C1CC[C@@]2(O)[C@H]3Cc4ccc(O)c5c4[C@@]2(CCN3CC2CC2)[C@H]1O5", "note": "[naltrexone]", "values": [
      {"measurement": "effect on low-dose κ-opioid-induced hyperalgesia, compared with CTX-B cotreatment", "setting": "Swiss-Webster (SW) mice [3]", "result": "similar"},
      {"measurement": "effect on low-dose κ-opioid-induced hyperalgesia, compared with CTX-B cotreatment", "setting": "Swiss-Webster (SW) mice [3]; listed as NTX", "result": "comparable; also recorded: selectively blocked"},
      {"measurement": "block of low-dose morphine hyperalgesia and unmasking of analgesia, compared with CTXB cotreatment", "setting": "Swiss-Webster (SW) mice [3]; 1 μg/kg morphine plus 1 pg/kg (ultralow-dose) naltrexone", "result": "similar"},
      {"measurement": "effect on baseline tail-flick latency", "setting": "Swiss-Webster (SW) mice [6]", "result": "did not alter the baseline tail-flick latency"}
    ]},
    {"molecule": "Oc1ccc2c3c1O[C@H]1c4[nH]c5c(c4C[C@@]4(O)[C@@H](C2)N(CC2CC2)CC[C@]314)C[C@@]1(O)[C@H]2Cc3ccc(O)c4c3[C@@]1(CCN2CC1CC1)[C@H]5O4", "note": "[nor-binaltorphimine]", "values": [
      {"measurement": "effect on low-dose κ-opioid-induced hyperalgesia, compared with CTX-B cotreatment", "setting": "Swiss-Webster (SW) mice [3]", "result": "comparable; also recorded: selectively blocked; also recorded: similar"}
    ]},
    {"molecule": "CCOC(=O)C1=C[C@@H](OC(CC)CC)[C@H](NC(C)=O)[C@@H](N)C1", "note": "[oseltamivir]", "values": [
      {"measurement": "time to development of morphine tolerance after withdrawal of oseltamivir", "setting": "Swiss-Webster (SW) mice [1]; FIG. 10", "result": "≤ 1", "unit": "days"},
      {"measurement": "development of opioid tolerance", "setting": "Swiss-Webster (SW) mice [1]; chronic cotreatment with morphine plus oseltamivir (FIGS. 8 and 9)", "result": "attenuates development of opioid tolerance"},
      {"measurement": "development of opioid tolerance", "setting": "Swiss-Webster (SW) mice [1]; chronic oseltamivir plus morphine for 3 days (FIG. 8)", "result": "prevents development of opioid tolerance"},
      {"measurement": "effect on analgesic potency of higher doses of morphine", "setting": "Swiss-Webster (SW) mice [1]; cotreatment with oseltamivir, male mice (FIG. 7)", "result": "markedly enhances the analgesic potency"},
      {"measurement": "effect on low-dose morphine-induced hyperalgesia", "setting": "Swiss-Webster (SW) mice [1]; morphine plus oseltamivir s.c., male mice (FIG. 6)", "result": "selectively blocks; also recorded: blocks low-dose, morphine-induced hyperalgesia"},
      {"measurement": "effect of adding oseltamivir to chronic morphine-tolerant mice", "setting": "Swiss-Webster (SW) mice [1]; oseltamivir added for 1 day (FIG. 10)", "result": "restores prominent analgesia"},
      {"measurement": "morphine analgesia after chronic cotreatment", "setting": "Swiss-Webster (SW) mice [1]; oseltamivir plus morphine, 5 days (FIG. 9)", "result": "still show prominent morphine (Mor) analgesia"},
      {"measurement": "NLX-precipitated withdrawal hyperalgesia", "setting": "Swiss-Webster (SW) mice [2]; chronic cotreatment with morphine plus oseltamivir", "result": "prevented development of NLX-precipitated withdrawal hyperalgesia"}
    ]},
    {"molecule": "dynorphin", "values": [
      {"measurement": "effect on tail-flick latency", "setting": "mice; dynorphin 0.5 μg/kg s.c., tested at 90 min post-injection", "result": "thermal hyperalgesia"},
      {"measurement": "effect on tail-flick latency", "setting": "mice; dynorphin 50 μg/kg", "result": "analgesia"}
    ]}
  ]
}
